Measurements from the kinase profiling compilation of Christmann-Franck et al. (2016).

Tests used:
Assay in all cases: Caliper, Mobility shift assay off-chip
[1] = target: EPHB1 (human) (UniProt P54762)
[2] = target: TSSK1B (human) (UniProt Q9BXA7)
[3] = target: MUSK (human) (UniProt O15146)
[4] = target: LIMK1 (human) (UniProt P53667)
[5] = target: PRKCE (human) (UniProt Q02156)
[6] = target: CHEK2 (human) (UniProt O96017)
[7] = target: MKNK2 (human) (UniProt Q9HBH9)
[8] = target: PAK7 (human) (UniProt Q9P286)
[9] = target: PAK2 (human) (UniProt Q13177)
[10] = target: NEK3 (human) (UniProt P51956)
[11] = target: WNK3 (human) (UniProt Q9BYP7)
[12] = target: HIPK3 (human) (UniProt Q9H422)
[13] = target: CDK9 CCNT1 (human) (UniProt O60563+P50750)
[14] = system: CHEK2 (human), O96017 [I157T]
[15] = target: PTK2 (human) (UniProt Q05397)
[16] = target: MARK1 (human) (UniProt Q9P0L2)
[17] = target: CAMK2G (human) (UniProt Q13555)
[18] = target: DAPK3 (human) (UniProt O43293)
[19] = system: EGFR (human), P00533 [L858R]
[20] = target: ROCK2 (human) (UniProt O75116)
[21] = target: FLT4 (human) (UniProt P35916)
[22] = target: MAP2K7 (human) (UniProt O14733)
[23] = target: CSNK1G3 (human) (UniProt Q9Y6M4)
[24] = system: EGFR (human), P00533 [T790M]
[25] = target: FYN (human) (UniProt P06241)
[26] = target: EPHA5 (human) (UniProt P54756)
[27] = target: PAK6 (human) (UniProt Q9NQU5)
[28] = target: CDK7 CCNH MNAT1 (human) (UniProt P50613+P51948+P51946)
[29] = target: JAK3 JH1 JH2 (human) (UniProt P52333)
[30] = target: EPHA1 (human) (UniProt P21709)
[31] = target: ITK (human) (UniProt Q08881)
[32] = target: FGFR2 (human) (UniProt P21802)
[33] = target: MELK (human) (UniProt Q14680)
[34] = target: STK11 (human) (UniProt Q15831)
[35] = target: MAP2K6 (human) (UniProt P52564)
[36] = target: SGK3 (human) (UniProt Q96BR1)
[37] = target: ERBB4 (human) (UniProt Q15303)
[38] = target: NEK7 (human) (UniProt Q8TDX7)
[39] = target: WNK2 (human) (UniProt Q9Y3S1)
[40] = target: STK24 (human) (UniProt Q9Y6E0)
[41] = target: MAPK10 (human) (UniProt P53779)
Sequence of MAPK10 (human) (P53779 whole entry, looked up): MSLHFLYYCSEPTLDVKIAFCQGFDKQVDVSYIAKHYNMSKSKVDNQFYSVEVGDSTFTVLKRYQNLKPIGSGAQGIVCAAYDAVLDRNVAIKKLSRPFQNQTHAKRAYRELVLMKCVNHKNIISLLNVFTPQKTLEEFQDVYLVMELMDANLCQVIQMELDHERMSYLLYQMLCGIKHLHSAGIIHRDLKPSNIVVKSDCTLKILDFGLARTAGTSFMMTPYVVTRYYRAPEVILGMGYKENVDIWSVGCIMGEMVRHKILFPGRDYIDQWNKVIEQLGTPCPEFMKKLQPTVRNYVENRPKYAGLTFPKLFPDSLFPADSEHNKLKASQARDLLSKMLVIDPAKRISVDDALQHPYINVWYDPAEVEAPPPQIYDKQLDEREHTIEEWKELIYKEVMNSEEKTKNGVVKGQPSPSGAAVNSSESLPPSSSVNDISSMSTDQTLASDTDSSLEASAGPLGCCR

Sequence of ITK (human) (Q08881 whole entry, looked up): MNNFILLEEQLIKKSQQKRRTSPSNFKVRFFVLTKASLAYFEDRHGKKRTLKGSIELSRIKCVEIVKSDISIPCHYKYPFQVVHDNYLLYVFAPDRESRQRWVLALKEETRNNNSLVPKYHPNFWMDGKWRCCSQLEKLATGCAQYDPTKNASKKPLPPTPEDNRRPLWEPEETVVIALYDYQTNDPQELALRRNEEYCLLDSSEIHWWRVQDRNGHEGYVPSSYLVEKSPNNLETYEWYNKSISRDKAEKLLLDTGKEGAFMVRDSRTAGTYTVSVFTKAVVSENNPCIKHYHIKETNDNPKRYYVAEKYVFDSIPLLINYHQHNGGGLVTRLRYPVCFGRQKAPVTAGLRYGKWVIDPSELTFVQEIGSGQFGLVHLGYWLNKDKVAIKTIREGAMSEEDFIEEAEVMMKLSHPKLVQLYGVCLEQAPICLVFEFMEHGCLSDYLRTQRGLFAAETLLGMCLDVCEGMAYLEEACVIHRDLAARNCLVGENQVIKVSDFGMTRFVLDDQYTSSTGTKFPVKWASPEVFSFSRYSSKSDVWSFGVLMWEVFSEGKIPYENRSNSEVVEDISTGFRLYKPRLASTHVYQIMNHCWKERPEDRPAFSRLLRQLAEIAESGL
Sequence of MAP2K6 (human) (P52564 whole entry, looked up): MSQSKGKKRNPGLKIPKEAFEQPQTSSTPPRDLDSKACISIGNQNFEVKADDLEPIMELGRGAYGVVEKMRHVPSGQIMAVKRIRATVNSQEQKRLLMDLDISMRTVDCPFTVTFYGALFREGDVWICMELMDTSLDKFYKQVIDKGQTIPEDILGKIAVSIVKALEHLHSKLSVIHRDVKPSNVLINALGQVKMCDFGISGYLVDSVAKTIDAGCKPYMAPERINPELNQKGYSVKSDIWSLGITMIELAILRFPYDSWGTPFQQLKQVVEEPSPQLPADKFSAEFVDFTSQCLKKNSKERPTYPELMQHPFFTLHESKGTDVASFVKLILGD
Sequence of TSSK1B (human) (Q9BXA7 whole entry, looked up): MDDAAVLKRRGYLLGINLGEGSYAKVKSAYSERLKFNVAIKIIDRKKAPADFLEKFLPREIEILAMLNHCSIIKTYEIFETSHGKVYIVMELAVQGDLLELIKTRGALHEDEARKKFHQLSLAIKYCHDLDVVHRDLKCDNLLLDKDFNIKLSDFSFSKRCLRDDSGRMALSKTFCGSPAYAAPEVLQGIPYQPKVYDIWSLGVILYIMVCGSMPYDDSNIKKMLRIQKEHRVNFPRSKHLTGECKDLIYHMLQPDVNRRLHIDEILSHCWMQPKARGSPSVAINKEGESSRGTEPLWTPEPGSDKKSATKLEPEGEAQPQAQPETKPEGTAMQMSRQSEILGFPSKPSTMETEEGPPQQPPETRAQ
Sequence of PAK6 (human) (Q9NQU5 whole entry, looked up): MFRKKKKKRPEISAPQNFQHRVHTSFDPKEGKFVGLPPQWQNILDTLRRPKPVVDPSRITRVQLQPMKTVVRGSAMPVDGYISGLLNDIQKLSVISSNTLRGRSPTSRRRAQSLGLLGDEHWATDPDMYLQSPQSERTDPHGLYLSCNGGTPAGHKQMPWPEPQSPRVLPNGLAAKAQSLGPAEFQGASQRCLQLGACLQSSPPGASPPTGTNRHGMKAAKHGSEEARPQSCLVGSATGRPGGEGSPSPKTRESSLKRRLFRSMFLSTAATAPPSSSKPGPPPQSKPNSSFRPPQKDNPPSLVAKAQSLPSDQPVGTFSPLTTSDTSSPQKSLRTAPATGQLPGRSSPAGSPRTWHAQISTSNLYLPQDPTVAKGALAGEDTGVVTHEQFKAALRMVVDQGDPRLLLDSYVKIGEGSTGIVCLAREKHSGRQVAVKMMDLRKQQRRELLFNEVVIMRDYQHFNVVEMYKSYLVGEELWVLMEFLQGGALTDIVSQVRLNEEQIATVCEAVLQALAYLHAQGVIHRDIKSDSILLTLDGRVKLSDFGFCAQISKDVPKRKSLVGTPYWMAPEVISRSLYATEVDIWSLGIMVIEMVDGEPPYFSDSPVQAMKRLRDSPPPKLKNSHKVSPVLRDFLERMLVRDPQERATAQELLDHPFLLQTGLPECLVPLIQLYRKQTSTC
Sequence of NEK7 (human) (Q8TDX7 whole entry, looked up): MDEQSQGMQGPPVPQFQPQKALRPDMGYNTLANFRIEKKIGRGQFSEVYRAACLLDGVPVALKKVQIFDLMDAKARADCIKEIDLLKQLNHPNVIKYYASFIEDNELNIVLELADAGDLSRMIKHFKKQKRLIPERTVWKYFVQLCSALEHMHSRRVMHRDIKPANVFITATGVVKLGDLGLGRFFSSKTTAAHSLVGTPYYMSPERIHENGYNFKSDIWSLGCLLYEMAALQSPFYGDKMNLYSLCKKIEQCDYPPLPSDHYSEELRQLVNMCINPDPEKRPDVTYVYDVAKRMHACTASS
Sequence of PAK2 (human) (Q13177 whole entry, looked up): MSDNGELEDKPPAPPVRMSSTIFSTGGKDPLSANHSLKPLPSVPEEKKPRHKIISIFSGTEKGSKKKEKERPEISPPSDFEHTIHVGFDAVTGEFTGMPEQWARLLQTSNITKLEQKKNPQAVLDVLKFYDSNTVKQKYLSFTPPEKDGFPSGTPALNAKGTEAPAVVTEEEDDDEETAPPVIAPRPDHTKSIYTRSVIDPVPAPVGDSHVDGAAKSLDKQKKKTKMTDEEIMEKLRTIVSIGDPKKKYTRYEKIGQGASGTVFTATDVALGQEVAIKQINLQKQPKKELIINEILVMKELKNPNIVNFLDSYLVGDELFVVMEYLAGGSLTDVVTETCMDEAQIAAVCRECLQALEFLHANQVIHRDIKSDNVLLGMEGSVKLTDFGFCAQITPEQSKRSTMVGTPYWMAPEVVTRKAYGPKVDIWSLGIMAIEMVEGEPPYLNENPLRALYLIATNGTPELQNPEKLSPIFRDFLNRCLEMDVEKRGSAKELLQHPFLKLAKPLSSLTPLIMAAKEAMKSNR
Sequence of JAK3 JH1 JH2 (human) (P52333 whole entry, looked up): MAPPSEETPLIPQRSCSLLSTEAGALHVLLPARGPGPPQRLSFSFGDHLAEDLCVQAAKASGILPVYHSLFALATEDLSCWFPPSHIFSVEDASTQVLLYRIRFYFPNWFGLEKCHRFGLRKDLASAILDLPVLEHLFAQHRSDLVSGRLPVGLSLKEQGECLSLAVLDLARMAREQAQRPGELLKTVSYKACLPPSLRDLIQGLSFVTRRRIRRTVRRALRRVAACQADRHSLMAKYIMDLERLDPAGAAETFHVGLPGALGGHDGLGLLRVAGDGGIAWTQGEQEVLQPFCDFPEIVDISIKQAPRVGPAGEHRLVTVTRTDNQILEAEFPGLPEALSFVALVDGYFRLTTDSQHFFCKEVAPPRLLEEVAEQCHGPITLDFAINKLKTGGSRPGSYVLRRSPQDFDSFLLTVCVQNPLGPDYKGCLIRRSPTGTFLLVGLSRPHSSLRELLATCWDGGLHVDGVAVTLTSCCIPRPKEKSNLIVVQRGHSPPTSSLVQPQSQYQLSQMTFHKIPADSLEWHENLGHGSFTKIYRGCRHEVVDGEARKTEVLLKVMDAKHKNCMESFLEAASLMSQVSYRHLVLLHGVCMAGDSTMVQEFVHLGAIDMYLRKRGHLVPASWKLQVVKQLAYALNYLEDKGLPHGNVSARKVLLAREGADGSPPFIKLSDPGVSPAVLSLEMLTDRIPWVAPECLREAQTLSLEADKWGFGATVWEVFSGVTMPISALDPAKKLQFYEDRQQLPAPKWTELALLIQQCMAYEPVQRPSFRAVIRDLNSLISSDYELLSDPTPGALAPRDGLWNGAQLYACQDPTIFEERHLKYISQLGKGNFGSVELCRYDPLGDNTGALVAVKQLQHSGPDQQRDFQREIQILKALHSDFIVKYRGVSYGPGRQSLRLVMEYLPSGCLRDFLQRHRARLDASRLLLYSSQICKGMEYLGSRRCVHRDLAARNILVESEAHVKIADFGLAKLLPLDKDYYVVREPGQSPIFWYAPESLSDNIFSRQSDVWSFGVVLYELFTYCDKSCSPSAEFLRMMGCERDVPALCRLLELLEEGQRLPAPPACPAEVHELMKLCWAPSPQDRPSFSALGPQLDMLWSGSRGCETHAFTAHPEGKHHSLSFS
Sequence of MAP2K7 (human) (O14733 whole entry, looked up): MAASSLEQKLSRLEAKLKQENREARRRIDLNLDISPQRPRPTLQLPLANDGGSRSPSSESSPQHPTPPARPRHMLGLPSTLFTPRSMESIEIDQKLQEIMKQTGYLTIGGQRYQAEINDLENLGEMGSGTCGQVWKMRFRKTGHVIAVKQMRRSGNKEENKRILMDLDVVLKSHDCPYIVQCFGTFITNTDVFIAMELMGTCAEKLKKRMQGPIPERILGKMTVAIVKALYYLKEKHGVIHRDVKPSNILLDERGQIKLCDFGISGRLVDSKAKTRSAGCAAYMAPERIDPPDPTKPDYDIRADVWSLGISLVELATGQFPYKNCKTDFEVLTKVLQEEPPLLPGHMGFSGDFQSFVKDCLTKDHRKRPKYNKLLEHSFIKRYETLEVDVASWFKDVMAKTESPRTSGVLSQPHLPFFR

O=C(N[C@@H](COc1ccc2[nH]c(=O)[nH]c2c1)c1ccccc1)c1cccn(Cc2ccc(F)c(F)c2)c1=O
residual activity ([1]; compound 10.0 µM): 104%
residual activity ([2]; compound 10.0 µM): 100%
residual activity ([3]; compound 10.0 µM): 98%
residual activity ([4]; compound 10.0 µM): 97%
residual activity ([5]; compound 10.0 µM): 96%
residual activity ([6]; compound 10.0 µM): 132%
residual activity ([7]; compound 10.0 µM): 101%
residual activity ([8]; compound 10.0 µM): 100%
residual activity ([9]; compound 10.0 µM): 94%
residual activity ([10]; compound 10.0 µM): 104%
residual activity ([11]; compound 10.0 µM): 99%
residual activity ([12]; compound 10.0 µM): 110%
residual activity ([13]; compound 10.0 µM): 102%
residual activity ([14]; compound 10.0 µM): 90%
residual activity ([15]; compound 10.0 µM): 103%
residual activity ([16]; compound 10.0 µM): 99%
residual activity ([17]; compound 10.0 µM): 97%
residual activity ([18]; compound 10.0 µM): 121%
residual activity ([19]; compound 10.0 µM): 102%
residual activity ([20]; compound 10.0 µM): 109%
residual activity ([21]; compound 10.0 µM): 109%
residual activity ([22]; compound 10.0 µM): 95%
residual activity ([23]; compound 10.0 µM): 99%
residual activity ([24]; compound 10.0 µM): 107%
residual activity ([25]; compound 10.0 µM): 89%
residual activity ([26]; compound 10.0 µM): 99%
residual activity ([27]; compound 10.0 µM): 101%
residual activity ([28]; compound 10.0 µM): 95%
residual activity ([29]; compound 10.0 µM): 98%
residual activity ([30]; compound 10.0 µM): 107%
residual activity ([31]; compound 10.0 µM): 108%
residual activity ([32]; compound 10.0 µM): 92%
residual activity ([33]; compound 10.0 µM): 104%
residual activity ([34]; compound 10.0 µM): 111%
residual activity ([35]; compound 10.0 µM): 115%
residual activity ([36]; compound 10.0 µM): 117%
residual activity ([37]; compound 10.0 µM): 120%
residual activity ([38]; compound 10.0 µM): 102%
residual activity ([39]; compound 10.0 µM): 104%
residual activity ([40]; compound 10.0 µM): 100%
residual activity ([41]; compound 10.0 µM): 105%

C[C@@H](Nc1nc2c(C#CC3CC3)c[nH]c(=O)c2c2cc(-c3cn[nH]c3)ccc12)C(C)(C)C
residual activity ([1]; compound 1.0 µM): 104%
residual activity ([2]; compound 1.0 µM): 75%
residual activity ([3]; compound 1.0 µM): 96%
residual activity ([4]; compound 1.0 µM): 67%
residual activity ([5]; compound 1.0 µM): 106%
residual activity ([6]; compound 1.0 µM): 4%
residual activity ([7]; compound 1.0 µM): 30%
residual activity ([8]; compound 1.0 µM): 103%
residual activity ([9]; compound 1.0 µM): 99%
residual activity ([10]; compound 1.0 µM): 104%
residual activity ([11]; compound 1.0 µM): 73%
residual activity ([12]; compound 1.0 µM): 104%
residual activity ([13]; compound 1.0 µM): 96%
residual activity ([14]; compound 1.0 µM): 9%
residual activity ([15]; compound 1.0 µM): 75%
residual activity ([16]; compound 1.0 µM): 61%
residual activity ([17]; compound 1.0 µM): 13%
residual activity ([18]; compound 1.0 µM): 57%
residual activity ([19]; compound 1.0 µM): 76%
residual activity ([20]; compound 1.0 µM): 29%
residual activity ([21]; compound 1.0 µM): 2%
residual activity ([22]; compound 1.0 µM): 107%
residual activity ([23]; compound 1.0 µM): 113%
residual activity ([24]; compound 1.0 µM): 36%
residual activity ([25]; compound 1.0 µM): 79%
residual activity ([26]; compound 1.0 µM): 109%
residual activity ([27]; compound 1.0 µM): 103%
residual activity ([28]; compound 1.0 µM): 102%
residual activity ([29]; compound 1.0 µM): 56%
residual activity ([30]; compound 1.0 µM): 99%
residual activity ([31]; compound 1.0 µM): 113%
residual activity ([32]; compound 1.0 µM): 56%
residual activity ([33]; compound 1.0 µM): 67%
residual activity ([34]; compound 1.0 µM): 96%
residual activity ([35]; compound 1.0 µM): 106%
residual activity ([36]; compound 1.0 µM): 104%
residual activity ([37]; compound 1.0 µM): 102%
residual activity ([38]; compound 1.0 µM): 111%
residual activity ([39]; compound 1.0 µM): 98%
residual activity ([40]; compound 1.0 µM): 125%
residual activity ([41]; compound 1.0 µM): 71%

CC(C)(C)c1nc2c3ccc(F)cc3c3c(=O)[nH]ccc3c2[nH]1
residual activity ([15]; compound 10.0 µM): 93%
residual activity ([33]; compound 10.0 µM): 6%

Cc1n[nH]c2c1c(=O)n(CCCN)c1ccc(Cl)cc21
residual activity ([2]; compound 1.0 µM): 24%
residual activity ([3]; compound 1.0 µM): 91%
residual activity ([4]; compound 1.0 µM): 120%
residual activity ([5]; compound 1.0 µM): 90%
residual activity ([6]; compound 1.0 µM): 5%
residual activity ([7]; compound 1.0 µM): 86%
residual activity ([9]; compound 1.0 µM): 106%
residual activity ([11]; compound 1.0 µM): 111%
residual activity ([16]; compound 1.0 µM): 4%
residual activity ([18]; compound 1.0 µM): 43%
residual activity ([19]; compound 1.0 µM): 105%
residual activity ([20]; compound 1.0 µM): 87%
residual activity ([22]; compound 1.0 µM): 103%
residual activity ([25]; compound 1.0 µM): 71%
residual activity ([26]; compound 1.0 µM): 94%
residual activity ([27]; compound 1.0 µM): 31%
residual activity ([28]; compound 1.0 µM): 55%
residual activity ([29]; compound 1.0 µM): 100%
residual activity ([31]; compound 1.0 µM): 127%
residual activity ([32]; compound 1.0 µM): 99%
residual activity ([34]; compound 1.0 µM): 104%
residual activity ([35]; compound 1.0 µM): 106%
residual activity ([36]; compound 1.0 µM): 94%
residual activity ([37]; compound 1.0 µM): 103%
residual activity ([38]; compound 1.0 µM): 105%
residual activity ([41]; compound 1.0 µM): 110%
